From US20260072046A1 (priority 2015, published 2026)
Like-named read-outs stand apart in the source and are kept apart here.

Legend:
[1] = LC-MS/MS quantification of drugs in oral fluid of live and post-mortem dogs; conditions: for detected and quantified in the sublingual region (oral fluid): Example 4, post-mortem dog, sublingual area
[2] = LC/MS/MS of muscle tissue homogenate (conventional method); conditions: Example 5, remains of decedent; homogenate muscle tissue:plasma 1:4
[3] = LC-MS/MS quantification of drugs in muscle tissue fluid from remains of a post-mortem individual
[4] = human; for concentration detected in the sublingual region (oral fluid) / concentration detected in the submandibular gland (oral fluid): female
[5] = post-mortem dog SF10049, FIG. 28
[6] = PM50019 001a, liquid leaked from container
[7] = PM50019 001b, fluid expelled by pressing muscle tissue

CC(=O)Nc1ccc(O)cc1 [acetaminophen]
detected and quantified in the sublingual region (oral fluid) [1]: 12.20 ng/mL
concentration in oral fluid [1, 5]: 12.20 ng/mL

CC(N)Cc1ccccc1 (stereo not shown) [amphetamine]
concentration from the muscle tissue homogenate [2]: < 100 ng/g
concentration from the muscle tissue sample (muscle tissue fluid) [3, 6]: 10.4 ng/mL
concentration from the muscle tissue sample (muscle tissue fluid) [3, 7]: 5.7 ng/mL

CCCC(C)(COC(N)=O)COC(=O)NC(C)C (stereo not shown) [carisoprodol]
concentration detected in the sublingual region (oral fluid) [4]: 49.20 ng/mL
concentration detected in the submandibular gland (oral fluid) [4]: 54.38 ng/mL

O=C1CN=C(c2ccccc2Cl)c2cc([N+](=O)[O-])ccc2N1 [clonazepam]
concentration in oral fluid [4]: 0.34 ng/mL

COc1ccc2c3c1O[C@H]1[C@@H](O)C=C[C@H]4[C@@H](C2)N(C)CC[C@@]341 [codeine]
concentration detected in the sublingual region (oral fluid) [4]: 5.64 ng/mL
concentration detected in the submandibular gland (oral fluid) [4]: 0.0 ng/mL
concentration in oral fluid [4]: 4.63 ng/mL

CN(C)CCC=C1c2ccccc2C=Cc2ccccc21 [cyclobenzaprine]
concentration in oral fluid [4]: 4.74 ng/mL

NCC1(CC(=O)O)CCCCC1 [gabapentin]
detected and quantified in the sublingual region (oral fluid) [1]: 205.00 ng/mL
concentration in oral fluid [1, 5]: 205.00 ng/mL

CNC1(c2ccccc2Cl)CCCCC1=O (stereo not shown) [ketamine]
detected and quantified in the sublingual region (oral fluid) [1]: 408.30 ng/mL
concentration in oral fluid ([1]; live dog SF10085, FIG. 21): 598.30 ng/mL
concentration in oral fluid ([1]; live dog SF10086, FIG. 22): 592.10 ng/mL
concentration in oral fluid ([1]; live dog SF10087, FIG. 23): 1914.90 ng/mL
concentration in oral fluid ([1]; live dog SF10088, FIG. 24): 426.20 ng/mL
concentration in oral fluid ([1]; live dog SF10092, FIG. 25): 844.20 ng/mL
concentration in oral fluid [1, 5]: 408.30 ng/mL
concentration in oral fluid ([1]; post-mortem dog SF10093, FIG. 26): 229.50 ng/mL

CN[C@@H](C)Cc1ccccc1 [methamphetamine]
concentration from the muscle tissue homogenate [2]: 448+63 ng/g
concentration in oral fluid ([1]; live dog SF10048, FIG. 27): 16.20 ng/mL
concentration from the muscle tissue sample (muscle tissue fluid) [3, 6]: 113.1 ng/mL
concentration from the muscle tissue sample (muscle tissue fluid) [3, 7]: 46.1 ng/mL

CN1CC[C@]23c4c5ccc(O)c4O[C@H]2[C@@H](O)C=C[C@H]3[C@H]1C5 [morphine]
concentration detected in the sublingual region (oral fluid) [4]: 197.42 ng/mL
concentration detected in the submandibular gland (oral fluid) [4]: 12.34 ng/mL

COc1ccc2c3c1O[C@H]1C(=O)CC[C@@]4(O)[C@@H](C2)N(C)CC[C@]314 [oxycodone]
concentration in oral fluid [4]: 5.53 ng/mL

COc1cccc(C2(O)CCCCC2CN(C)C)c1 (stereo not shown) [tramadol]
detected and quantified in the sublingual region (oral fluid) [1]: 49.70 ng/mL
concentration in oral fluid [1, 5]: 49.70 ng/mL
